Reference: patent publication US9604945B2, “Sydnonimines-specific dopamine reuptake inhibitors and their use in treating dopamine related disorders” (priority 2007, dated 2017)
Where two headings read alike, the source gives them in different places.

Experiments:
[1] = biological target: dopamine transporter (DAT) (Cavia porcellus, UniProt H0WCX4); assay: Dopamine transporter binding assay [3H]WIN 35,428; set-up: species or system Guinea Pig; conditions: for inhibition at 10 µM: read-out: INH at 10 μM DAT
Procedure: DAT inhibition activity was tested according to the procedure described by J. Javitz et al., Mol. Pharmacol., 26: 35-44 (1984). The test results for a number of representative compounds of the invention are reported hereinbelow.
I. Dopamine Transporter Binding Assay [3H]WIN 35,428
• This assay was carried out according to the procedure described by Javitch, J. J. et al., Mol. Pharmacol. 26: 35-44; 1984
A. Tissue Preparation (Prepare all Solutions on Ice) • 1. Thaw frozen brains from male Guinea Pigs (in assay buffer) and place in 50 mM TRIS-HCl (pH 7.4 at 25° C. with 120 mM NaCl). Isolate striatum. • 2. Use a Polytron to homogenize tissue in 20 vols. (w/v) of 50 mM Tris-HCl (pH 7.4 at 25° C. with 120 mM NaCl). • 3. Centrifuge homogenate at 48,400×g for approximately 10 minutes at 4° C. Discard supernatant. • 4. Wash pellet an additional time as described in steps 2 and 3. • 5. Store pellet on ice until needed for binding assay. • 6. Using a Polytron (setting 5; approximately 10 seconds) resuspend pellet in 50 mM Tris-HCl (pH 7.4 at 25° C. with 120 mM NaCl) to an initial concentration of 10 mg/ml (original wet weight), such that the final concentration is 8 mg/ml or 4.0 mg tissue/tube.
B. Binding Reaction • 1. Each tube receives the following components: • 50 ul drug or vehicle • 50 ul [3H]-WIN 35,428 • 400 ul tissue suspension. • 2. Initiate binding reaction with the addition of tissue, and incubate for 120 minutes at 0° C. (on ice). • 3. Terminate binding reaction by rapid filtration of tube contents onto untreated Whatman GF/C filters. • 4. Rinse the assay tubes once with ice cold 50 mM TRIS HCl (pH 7.4 at 25° C. with 120 mM NaCl, BSA), then rapidly rinse the filters with 6×1 mls/tube of the same wash buffer. • 5. Radioactivity trapped onto the filters is assessed using LSM machine. Let sit for 3 hours in scint cocktail.
C. Dopamine Tranasporter Binding Assay
Materials and Reagents • 1. [3H]-WIN 35-428 is diluted to a concentration of 60 nM in 50 mM TRIS HCl (pH 7.4 at 25° C. with 120 mM NaCl). Thus, the final ligand concentration is 6 nM. • 2. Non-specific binding is defined as that remaining in the presence of 1×10^-6 M GBR12909 (room temperature cabinet). GBR12909 MW=523.5 g/mol. Will solubilize in 4% DMSO (sonicate 15 minutes). Aliquots can be used (1E-3). • 3. The reference compound for the assay is GBR12909 and is diluted in 4% DMSO and is then run at the following final concentrations: 1×10^−10, 5×10^−10, 2×10^−9, 5×10^−9, 1×10^−8, 2×10^−8, 5×10^−8, 1×10^−7, 2×10^−7, 5×10^−7, 1×10^−6, 5×10^−6. • 4. The positive control GBR12909 and is run at the final concentrations of: 2×10-8, 1×10^−7, 5×10^−7M. • 5. The Kd for the receptor is 28.0 nM. Buffers

[2] = biological target: Norepinephrine Transporter (Human Recombinant) (Homo sapiens (Human), UniProt P23975); assay: Norepinephrine transporter (human recombinant) binding assay, [3H]-Nisoxetine; conditions: for inhibition at 10 µM: read-out: INH at 10 μM NET
Procedure: II: Norepinephrine Transporter (Human Recombinant) Binding Assay • This assay was carried out in accordance with the procedure described by Raisman, R, et al. Eur. Jrnl. Pharmacol. 78: 345-351 (1982) with modifications. See also, Langer, S., et al., Eur. Jrnl. Pharmacol, 72: 423-4 (1981). Tissue Preparation • 1. hrNET (Receptor Biology; RBNET) is diluted in assay buffer to 2.5 microunits/ml, so that each tube receives 0.5 microunits, or 2 microunits/ml. • NOTE: 100 microassays, add 20 mis of buffer. Binding Reaction • 1. Each tube receives the following components: • 25 ul drug or vehicle • 25 ul [^3H]-Nisoxetine • 200 ul tissue suspension. • 2. Initiate binding reaction with the addition of tissue, and incubate at room temperature for 1 hour. • 3. Terminate binding reaction by rapid filtration of tube contents onto 0.1% PEI treated GF/C filters (TopCount). • 4. Rinse the assay tubes once with ice cold 50 mM NaCl, then rapidly rinse the filters with 6×1 ml/tube of the same wash buffer. • 5. Radioactivity trapped onto the filters is assessed using liquid scintillation spectrophotometer after soaking the filters for at least 1 hour in scintillation cocktail. Materials and Reagents • 1. The receptor source is human recombinant/CHO. • 2. [^3H]-Nisoxetine, diluted to a concentration of 10 nM in assay buffer, is used as the radioligand. Thus, the final ligand concentration is 1 nM. • 3. Non specific binding is defined as that remaining in the presence of 1×10^−6M desipramine (MW=302.8) (Make fresh: in bag with dessicating rocks 1, dissolves in water 1E-3). • 4. The reference compound for the assay is desipramine. Desimpramine is run at following final concentrations: • 1×10^−10, 2×10^−10, 5×10^−10, 1×10^−9, 2×10^−9, 5×10^−9, 1×10^−8, 2×10^−8, 5×10^−8, 1×10^−7, 2×10^−7, 5×10^−7M • 5. The positive control is any of the above run at the final concentrations of: • 1×10^−9, 5×10^−9, 2×10^−8 M. • 6. The Kd for the receptor is 3 nM. Buffers

[3] = in vivo; cited from earlier work

Sequence of dopamine transporter (DAT) (H0WCX4 1-619): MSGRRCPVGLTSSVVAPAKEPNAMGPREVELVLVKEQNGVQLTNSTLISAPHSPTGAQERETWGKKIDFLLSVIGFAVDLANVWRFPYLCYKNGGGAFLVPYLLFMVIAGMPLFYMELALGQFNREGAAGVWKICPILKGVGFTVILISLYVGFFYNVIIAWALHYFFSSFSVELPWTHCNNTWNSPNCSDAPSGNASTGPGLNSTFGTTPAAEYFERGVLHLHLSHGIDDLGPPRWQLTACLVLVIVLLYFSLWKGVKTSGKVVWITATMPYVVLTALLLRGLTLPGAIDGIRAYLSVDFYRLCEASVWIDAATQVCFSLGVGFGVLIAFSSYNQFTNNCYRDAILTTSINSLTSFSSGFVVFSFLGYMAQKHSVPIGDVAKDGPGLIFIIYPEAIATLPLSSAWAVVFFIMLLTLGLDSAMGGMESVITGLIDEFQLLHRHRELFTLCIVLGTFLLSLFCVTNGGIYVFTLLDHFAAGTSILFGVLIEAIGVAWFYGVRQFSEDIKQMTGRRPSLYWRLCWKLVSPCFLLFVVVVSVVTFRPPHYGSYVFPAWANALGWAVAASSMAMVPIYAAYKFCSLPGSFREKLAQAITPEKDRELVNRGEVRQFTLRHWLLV

Structure (SMILES)	Ki [1] [nM]	inhibition at 10 µM [1] [%]	inhibition at 10 µM [2] [%]	INH at 10 μM DAT ([1]; 10 μM) [%]	Ki ([1]; read-out: Ki DAT) [nM]	INH at 10 μM NET ([2]; 10 μM) [%]	Effect on locomotor activity in open field studies [3]
O=C(/N=c1\[cH-][n+](Cc2ccccc2)no1)Nc1ccccc1 [Example 1, N-phenylcarbamoyl-3-(benzyl)-sydonimine]	36	90	0				
O=C([N-]c1c[n+](Cc2ccc(C(=O)O)cc2)no1)Nc1ccccc1 [Example 2]				92	2.7	11	
O=C(/N=c1\[cH-][n+](CCc2ccccc2)no1)Nc1ccc(Cl)c(Cl)c1 [Example 4, N-(3′,4′-dichlorophenyl) carbamoyl-3-phenethyl sydnonimine]	40	99	2				
O=C(/N=c1\[cH-][n+](CCc2ccc([N+](=O)[O-])cc2)no1)Nc1ccc([N+](=O)[O-])c([N+](=O)[O-])c1 [Example 5, N-(3′,4′-dinitrophenyl)carbamoyl-3-p-nitrophenethyl sydnonimine]	100	85	4				
O=C(/N=c1\[cH-][n+](Cc2ccc(F)cc2)no1)Nc1ccccc1 [Example 7, N-phenylcarbamoyl-3-(p-fluoro-benzyl)-sydnonimine]	0.46	99	15				
CC(Cc1ccccc1)[n+]1cc([N-]C(=O)Nc2ccccc2)on1 (stereo not shown) [sydnocarb, 3-(1-methyl-2-phenylethyl)-N-(phenylcarbomoyl)sydnone imine]							locomotor stimulating effect
